Literature values, collected in US20060024360A1, “Stable injectable composition of alpha tocopheryl succinate, analogues and salts thereof” (SD Pharmaceuticals, Inc., priority 2004, published 2006).
Counter-ions that a name gives are not always drawn.

How the values were obtained:
[1] = system: mouse cancer line (C1271)
[2] = system: human gastric carcinoma cell; details: human cells
[3] = system: melanoma; details: mice
[4] = system: color cancer liver metastases; details: in vivo
[5] = system: malignant mesothelioma; details: immunocompromised mice

Compound | induction of apoptosis [1] | other results
Cc1c(C)c2c(c(C)c1O)CC[C@@](C)(CCC[C@H](C)CCC[C@H](C)CCCC(C)C)O2 (racemic) [alpha-tocopherol, (±)-(2RS,4′RS,8′RS)-2,5,7,8-tetramethyl-2-(4′,8′, 12′-trimethyltridecyl)-6-chromanol] | not apoptogenic | –
CC(=O)Oc1c(C)c(C)c2c(c1C)CCC(C)(CCC[C@H](C)CCC[C@H](C)CCCC(C)C)O2 (stereo partly drawn) [alpha-tocopheryl acetate] | not apoptogenic | –
Cc1c(C)c2c(c(C)c1OC(=O)CC(=O)O)CCC(C)(CCCC(C)CCCC(C)CCCC(C)C)O2 (stereo not drawn) [alpha-tocopheryl malonate, Alpha-tocopheryl malonate] | induce apoptosis | –
Cc1c(C)c2c(c(C)c1OC(=O)c1cccnc1)CC[C@@](C)(CCC[C@H](C)CCC[C@H](C)CCCC(C)C)O2 [alpha-tocopheryl nicotinate] | not apoptogenic | –
Cc1c(C)c2c(c(C)c1OC(=O)C(=O)O)CCC(C)(CCCC(C)CCCC(C)CCCC(C)C)O2 (stereo not drawn) [alpha-tocopheryl oxalate, Alpha-tocopheryl oxalate] | induce apoptosis | relative potency among alpha-tocopheryl derivatives tested [1]: most potent
Cc1c(C)c2c(c(C)c1OC(=O)CCCCCC(=O)O)CCC(C)(CCCC(C)CCCC(C)CCCC(C)C)O2 (stereo not drawn) [alpha-tocopheryl pimelate, Alpha-tocopheryl pimelate] | not apoptogenic | –
CCOC(=O)CCC(=O)Oc1c(C)c(C)c2c(c1C)CCC(C)(CCCC(C)CCCC(C)CCCC(C)C)O2 (stereo not drawn) [alpha-tocopheryl succinate ethyl ester] | not apoptogenic | –
Cc1c(C)c2c(c(C)c1OC(=O)CCC(=O)O)CC[C@@](C)(CCC[C@H](C)CCC[C@H](C)CCCC(C)C)O2 [alpha-tocopheryl succinate] | induce apoptosis | gastric carcinoma cell growth [2]: inhibits human gastric carcinoma cell growth; melanoma growth [3]: inhibited melanoma growth; liver metastases [4]: inhibiting color cancer liver metastases; malignant mesothelioma [5]: suppressed malignant mesothelioma
Cc1c(O)cc2c(c1C)O[C@](C)(CCC[C@H](C)CCC[C@H](C)CCCC(C)C)CC2 [gamma-tocopherol, Gamma-tocopherol] | not apoptogenic | –
